Laboratory results published in patent US5696138A, “Urea derivatives and their use” (priority 1993, dated 1997).

What was measured:
BK channel [1] = target: BK channel (Bos taurus, UniProt Q28204); test: Single channel experiments, cultured bovine aortic smooth muscle cells; type: cell-based
Method: (§1) All experiments were performed with patch-clamp technique (Hamill et al., Pflugers Arch. 391, 85-100 (1981)). The ion composition of the internal solution was (in mM) 140 KCl, 1 CaCl2, 1 MgCl2, 2 EGTA, 10 HEPES and the external solution contained 140 NaCl, 4 KCl, 2 CaCl2, 1 MgCl2 and 10 HEPES.
The BK channels were also activated by N-(3-(trifluoromethyl)phenyl)-N'-(2-hydroxy-5-chlorophenyl) urea and N-phenyl-N'-(2-hydroxy-5-chlorophenyl) urea at concentrations equal or greater than 3 μM and by N-(3-(trifluoromethyl)phenyl)-N'-(2-hydroxy-5-(trifluoromethyl)phenyl) urea at concentrations greater than 10 μM.

[2] = test system: acetylcholine-contracted guinea-pig ileum; test: Guinea-pig ileum experiment (relaxation of acetylcholine-contracted ileum); settings: 3-30 μM; ileum precontracted with acetylcholine 0.015-5.0 μM
Method: The compound, N-(3-(trifluoromethyl)phenyl)-N'-(2-hydroxy-5-chlorophenyl) urea, has been studied for its ability to relax acetylcholine-contracted guinea-pig ileum. The smooth muscle cells of the ileum express many BK channels and the model predicts relaxing effects on the gastrointestinal or urogenital tracts.
Method: Ileum from guinea-pigs are isolated and mounted in an isometric contraction chamber. It is bathed in a physiological Krebs solution at 98° F. The ileum is precontracted with increasing concentrations of acetylcholine (0.015-5.0 μM). The contractions are reversed by including the compound in the bathing solution.

BK currents = BK currents (Bos taurus, UniProt Q28204); test: Whole cell recordings (patch-clamp, voltage clamp) of membrane currents in calf aortic smooth muscle cells; type: cell-based; settings: 1-10 μM in the bath
Chain of BK currents (Q28067 whole entry): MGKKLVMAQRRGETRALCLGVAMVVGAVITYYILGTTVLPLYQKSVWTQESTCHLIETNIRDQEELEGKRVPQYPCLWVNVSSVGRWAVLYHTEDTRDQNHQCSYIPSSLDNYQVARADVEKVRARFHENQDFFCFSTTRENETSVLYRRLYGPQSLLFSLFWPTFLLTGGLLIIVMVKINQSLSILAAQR
Chain of BK currents (Q28204 whole entry): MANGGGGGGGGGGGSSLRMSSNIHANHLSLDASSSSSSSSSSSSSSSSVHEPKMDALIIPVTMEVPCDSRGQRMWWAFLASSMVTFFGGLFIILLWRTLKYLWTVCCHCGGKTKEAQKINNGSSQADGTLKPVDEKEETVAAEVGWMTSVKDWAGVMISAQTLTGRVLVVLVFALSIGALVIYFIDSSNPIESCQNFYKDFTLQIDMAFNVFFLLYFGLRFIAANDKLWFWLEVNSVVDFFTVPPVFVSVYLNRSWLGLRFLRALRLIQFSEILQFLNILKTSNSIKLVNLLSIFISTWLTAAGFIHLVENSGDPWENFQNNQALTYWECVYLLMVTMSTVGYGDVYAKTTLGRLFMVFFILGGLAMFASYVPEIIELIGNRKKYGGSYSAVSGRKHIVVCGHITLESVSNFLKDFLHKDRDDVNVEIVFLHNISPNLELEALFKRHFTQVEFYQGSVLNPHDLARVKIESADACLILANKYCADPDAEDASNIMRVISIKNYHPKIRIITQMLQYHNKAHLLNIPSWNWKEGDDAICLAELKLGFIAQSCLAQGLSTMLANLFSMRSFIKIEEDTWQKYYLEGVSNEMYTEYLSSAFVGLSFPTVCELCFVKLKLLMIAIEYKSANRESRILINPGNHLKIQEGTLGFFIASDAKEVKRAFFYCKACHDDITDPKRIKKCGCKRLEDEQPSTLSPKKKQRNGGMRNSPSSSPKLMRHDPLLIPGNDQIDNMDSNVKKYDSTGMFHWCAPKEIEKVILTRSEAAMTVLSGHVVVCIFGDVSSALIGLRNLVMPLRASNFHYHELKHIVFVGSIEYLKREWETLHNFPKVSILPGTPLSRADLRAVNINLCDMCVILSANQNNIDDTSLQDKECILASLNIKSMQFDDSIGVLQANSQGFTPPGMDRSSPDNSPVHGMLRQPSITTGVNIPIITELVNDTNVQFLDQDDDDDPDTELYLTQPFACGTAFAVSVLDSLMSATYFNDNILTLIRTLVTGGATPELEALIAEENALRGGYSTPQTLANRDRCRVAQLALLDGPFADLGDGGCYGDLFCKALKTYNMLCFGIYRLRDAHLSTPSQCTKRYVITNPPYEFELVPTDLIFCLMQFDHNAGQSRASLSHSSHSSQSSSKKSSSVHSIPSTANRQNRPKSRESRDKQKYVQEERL
Method: as §1
The membrane currents of calf aortic smooth muscle cells were determined in whole-cell recordings using voltage clamp mode (HEKA EPC-9 patch-clamp amplifier).

BK channel [3] = test: Single channel experiments, inside-out patches of human coronary artery smooth muscle cell membrane; type: cell-based; settings: 1-10 μM
Method: as §1
In inside-out patches of human coronary artery smooth muscle cell membrane single BK channels were activated by for example N-(3-(trifluoromethyl)phenyl)-N'-(2-hydroxy-5-chlorophenyl) urea (1-10 μM).

[4] = test system: cocaine induced hypermotility; test: Cocaine motility test; type: in vivo; settings: 10-30 mg/kg i.p. 15 min before 25 mg/kg cocaine; female NMRI mice; motility over 120 min
Method: The compound, N-(3-(trifluoromethyl)phenyl)-N'-(2-hydroxy-5-chlorophenyl) urea, has been studied in the cocaine motility test. Cocaine induces hypermotility due to an inhibition of dopamine reuptake. The test is recognized as a test predicting anti-psychotic activity.
Method: Two female NMRI mice (20-25 g) are placed in each test box (normal transparent plexiglas cage, w, l, h=21×39×19 cm) in the test room for at least 16 hours with food and water ad libitum before the test in order for the animals to habituate to the situation. The test compound is administered i.p. 15 min before saline or 25 mg/kg cocaine jip. to 32 mice (16 boxes) per dose. Food and water are withdrawn, and the motility is measured as the number of interrupted infrared photo-beams (8 per box placed 5 cm apart and 3 cm over the bottom of the cage) for the next 120 min.

Chain of BK channel (Bos taurus, UniProt Q28204) (Q28204 whole entry): as above
Chain of BK channel (Bos taurus, UniProt Q28204) (Q28067 whole entry partner): as the sequence (Q28067 whole entry) above

SMILES	concentrations at which the BK channels were activated (BK channel [1])	relaxation of acetylcholine-contracted guinea-pig ileum [2]	activation of BK currents (blockable by charybdotoxin) (BK currents)	increase of the outward current (BK currents)	shift of the activation curve towards negative membrane potentials (BK currents)	activation of the BK channel (BK channel [1]; 1 μM)	activation of single BK channels (BK channel [3])	increase of the open probability of the BK channel (BK channel [3])	antagonism of cocaine induced hypermotility [4]
O=C(Nc1cccc(C(F)(F)F)c1)Nc1cc(C(F)(F)F)ccc1O [N-(3-(trifluoromethyl)phenyl)-N'-(2-hydroxy-5-(trifluoromethyl)phenyl) urea]	greater than 10 μM	–	–	–	–	–	–	–	–
O=C(Nc1cccc(C(F)(F)F)c1)Nc1cc(Cl)ccc1O [N-(3-(trifluoromethyl)phenyl)-N'-(2-hydroxy-5-chlorophenyl) urea]	≥ 3 µM	relaxes the ileum in a dose-dependent way	specifically activated BK currents	up to 10 times	more than -60 mV	significantly activated	activated	several hundred	antagonizes cocaine induced hypermotility
O=C(Nc1ccccc1)Nc1cc(Cl)ccc1O [N-phenyl-N'-(2-hydroxy-5-chlorophenyl) urea]	≥ 3 µM	–	–	–	–	–	–	–	–
